Data set [1] concerns wt strain. Briefly: Genome-wide expression analysis, wt strain under salt. The format is cell-based, Saccharomyces cerevisiae. Conditions: 1-NM-PP1 2 μM, 0.9 M NaCl. As for the experimental part:
(§1) Genome-wide expression analysis: Total RNA preparation from hog1-27 strain was performed as described previously (Holstege et al., Cell 95, 717-28, 1998). To monitor the changes in expression caused by specific inhibition of Hog1 kinase, cultures of either wt or hog1-27 were incubated with 1-NM-PP1 (2 μM) for 30 minutes before harvesting (for control, 0.002% DMSO was added). To monitor the effect of osmotic stress, sodium chloride was added into either inhibitor-treated or DMSO-treated cultures to a final concentration of 0.9 M.
(§2) The preparation of probe and the procedure for microassay experiments was performed as described in the literature. The output files from the scanner were uploaded into the GNF chip informatics server and expression profiles were analyzed using a built-in analysis program, ANOVA. Search for the common transcriptional regulatory elements was done using the promoter database of Saccharomyces cerevisiae at the Cold Spring Harbor Laboratory.
For DNA micro-array experiments, total RNAs were isolated from both the wt strain and the hog1-as1 mutant strain (hog1-27) treated with DMSO (WT+DMSO, MUT+DMSO), salt and DMSO (WTS+DMSO, MUTS+DMSO), salt and inhibitor (WTS+1-NM-PP1, MUTS+1-NM-PP1). […]

In data set [2] the test system is hog1-as1 mutant strain (hog1-27). Description: Genome-wide expression analysis, hog1-as1 mutant strain under salt. It is filed as cell-based, Saccharomyces cerevisiae. Conditions: MUTS+1-NM-PP1 versus MUTS+DMSO; 1-NM-PP1 2 μM, 0.9 M NaCl. As for the experimental part:
as §1, §2
For DNA micro-array experiments, total RNAs were isolated from both the wt strain and the hog1-as1 mutant strain (hog1-27) treated with DMSO (WT+DMSO, MUT+DMSO), salt and DMSO (WTS+DMSO, MUTS+DMSO), salt and inhibitor (WTS+1-NM-PP1, MUTS+1-NM-PP1). For each experiment, RNA samples were prepared in duplicates, followed by the preparation of the corresponding biotinylated cRNA probes and hybridized to Yeast Genome S98 arrays (Affymetrix). Two expression profiles were first examined between duplicate samples to ensure reproducibility and the whole procedure was repeated three times. […] To analyze the number of genes affected by salt addition, expression profiles of MUTS+DMSO versus MUT+DMSO were compared by ANOVA (Brazma and Vilo, 2000). The expressions of 874 genes in the mutant strain were changed more than 2.5 fold by the addition of salt. Thus, the analysis covered almost the full complement of genes known to be affected by osmotic stress.
The effect of inhibition in the hog1-as1 mutant strain was examined by comparing the expression profiles of MUTS+1-NM-PP1 versus MUTS+DMSO. […]

Data set [3] deals with SHMT1. Briefly: SHMT1 activity immunoprecipitated from sorbitol-stimulated SHMT1-HEK293 cells. It is filed as cell-based, human. Conditions: serum-starved SHMT1-HEK293 cells, 0.3 M sorbitol, 15 or 30 min; FIG. 3. As for the experimental part:
Transfection and retroviral infection: SHMT1 (human homolog of yeast Shm2) with a C-terminal myc tag was cloned into pBabe puro plasmid and was transiently transfected into Bosc 23 cells using Effectene (Qiagen) as manufacturer's protocol. The harvested retroviruses was added to 5×10^5 HEK-293 cells for infection. After 48 hours the infected cells were selected in the presence of 2.5 µg/mL of puromycin. SHMT1-HEK293 cells were cultured in DMEM with 10% Bovine Calf Serum (BCS) and were serum-starved for 24 hr in DMEM with 0.5% BCS.
Transient transfection and SHMT1 assay: MKK6b was cloned into pcDNA6Hismyc B vector (Invitrogen) and MKK6b-EE was further generated using Quick change protocol (Stratagene). Transient transfection of MKK6b-EE into SHMT1-HEK 293 cells was carried using Lipofectamine 2000 (Invitrogen) according to the manufacturer's protocol. […] SHMT1 or phosphorylated form of p38α was detected by immunobloting with either c-myc antibody (Santa Cruz) or phospho-p38 antibody (Cell Signal) using West pico supersignal kit (Pierce).
Finally, to investigate whether SHMT1 was also an in vivo target of p38 MAP kinase, myc-tagged SHMT1 expressing HEK 293 stable cells were generated. […] SHMT1 was immunoprecipitated at different time points after stimulation and its enzymatic activity was measured as described above. […]

For data set [4], the target named is T1, Shm2 (Saccharomyces cerevisiae, UniProt P37291).
T1 construct: made in house; host or cells: Saccharomyces cerevisiae
T1 sequence (P37291 1-469): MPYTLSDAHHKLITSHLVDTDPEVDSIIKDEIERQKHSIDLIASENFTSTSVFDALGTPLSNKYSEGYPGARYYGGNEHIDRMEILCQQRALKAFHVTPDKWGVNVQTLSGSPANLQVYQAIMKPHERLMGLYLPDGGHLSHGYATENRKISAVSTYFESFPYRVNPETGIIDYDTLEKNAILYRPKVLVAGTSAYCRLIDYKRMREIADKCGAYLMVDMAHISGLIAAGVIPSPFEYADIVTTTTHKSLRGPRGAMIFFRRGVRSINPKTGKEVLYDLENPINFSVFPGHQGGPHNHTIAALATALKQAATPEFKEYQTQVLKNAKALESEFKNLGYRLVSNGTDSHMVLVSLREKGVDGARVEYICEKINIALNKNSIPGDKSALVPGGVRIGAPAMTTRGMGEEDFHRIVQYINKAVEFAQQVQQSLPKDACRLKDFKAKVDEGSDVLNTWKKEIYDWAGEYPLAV
Briefly: Enzymatic assay for serine hydroxymethyltransferase 2 (Shm2) after pre-incubation with kinase. The format is biochemical. The following applies: in vitro; pre-incubation with p38α and 1 mM ATP, 30 min RT; FIG. 2D. As for the experimental part: (§3) Enzymatic assay for serine hydroxymethyltransferase 2 (Shm2): GST-Shm2 was purified from a yeast strain as described above and its enzymatic activity was measured as described earlier (Krishna Rao et al., Biochem J 343 Pt 1, 257-63, 1999) with minor modifications. To measure the effect of either Hog1-as1 or p38 kinases, Shm2 enzyme was pre-incubated with each kinase in presence of either 1 mM PE-ATP (for Hog1-as1) or 1 mM ATP (for p38) for 30 min at RT before adding to the reaction mixture.
To determine Shm2 activity, we measured the transfer of C^14-labeled one-carbon unit as described in the Krishna Rao et al., Biochem J 343 Pt 1, 257-63, 1999. In order to estimate the effect of phosphorylation, Shm2 was pre-incubated with or without Hog 1 kinase, prior to the C^14 transfer reaction.

Data set [5] concerns the target T2, SHMT1 (Homo sapiens, UniProt P34896).
T2 construct: expressed in transfected cells; host or cells: HEK-293 cells, retroviral infection with pBabe puro and puromycin selection (SHMT1-HEK293)
T2 sequence (P34896 1-483): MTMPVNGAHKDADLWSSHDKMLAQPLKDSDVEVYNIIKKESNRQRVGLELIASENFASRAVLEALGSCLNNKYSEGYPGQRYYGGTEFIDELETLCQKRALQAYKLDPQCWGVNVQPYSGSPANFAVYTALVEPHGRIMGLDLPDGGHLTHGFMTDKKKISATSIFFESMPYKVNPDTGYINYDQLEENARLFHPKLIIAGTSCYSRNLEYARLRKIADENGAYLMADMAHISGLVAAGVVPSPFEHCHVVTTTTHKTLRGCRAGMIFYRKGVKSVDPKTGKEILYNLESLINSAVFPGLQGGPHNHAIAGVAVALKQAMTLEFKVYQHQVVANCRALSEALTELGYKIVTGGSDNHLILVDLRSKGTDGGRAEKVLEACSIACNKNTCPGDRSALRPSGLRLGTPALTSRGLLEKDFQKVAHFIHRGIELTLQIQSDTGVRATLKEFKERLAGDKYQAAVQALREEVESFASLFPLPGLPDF
Description: SHMT1 enzymatic assay after phosphorylation by p38. It is filed as biochemical. The following applies: stated as in vitro; FIG. 4. How it is done: as §3
Transient transfection and SHMT1 assay: MKK6b was cloned into pcDNA6Hismyc B vector (Invitrogen) and MKK6b-EE was further generated using Quick change protocol (Stratagene). Transient transfection of MKK6b-EE into SHMT1-HEK 293 cells was carried using Lipofectamine 2000 (Invitrogen) according to the manufacturer's protocol. Immunoprecipitation procedure for SHMT1 from transfected cells was described previously (Shah and Shokat, Chem Biol 9, 35-47, 2002). SHMT1 enzymatic assay was carried out exactly as Shm2 assay as described above. SHMT1 or phosphorylated form of p38α was detected by immunobloting with either c-myc antibody (Santa Cruz) or phospho-p38 antibody (Cell Signal) using West pico supersignal kit (Pierce).

Data set [6] deals with SHMT. The following applies: background statement; cited from earlier work.

Consider `CC(C)(C)n1nc(Cc2cccc3ccccc23)c2c(N)ncnc21` [1-NM-PP1], for which, in data set [1], the “number of genes affected by addition of inhibitor” value stood at 11 genes. In data set [2], the “number of genes affected more than 2-fold by addition of inhibitor” value amounted to 96 genes, the “number of genes downregulated by addition of inhibitor” value is recorded as 81 genes and the “number of genes upregulated by addition of inhibitor” value turned out to be 15 genes.
For the compound `OC[C@@H](O)[C@@H](O)[C@H](O)[C@@H](O)CO` [sorbitol], the “SHMT1 enzymatic activity after sorbitol treatment” value in data set [3] is recorded as “decreased activity of SHMT1”.
For the compound “p38 MAP kinase: Active p38α MAP kinase purchased from Upstate Inc.; human homolog of Hog1”, the “modulation of Shm2 enzymatic activity upon phosphorylation” value in data set [4] is on record as ~50%. Moreover, the “modulation of SHMT1 enzymatic activity upon phosphorylation” value in data set [5] is recorded as 30%.
For the compound `CN(Cc1cnc2nc(N)nc(N)c2n1)c1ccc(C(=O)N[C@@H](CCC(=O)O)C(=O)O)cc1` [methotrexate], in data set [6], the “inhibition of SHMT activity” value is “failed to inhibit SHMT activity significantly”.

The record behind these values is patent US7252944B2, “Methods and compositions for modulating cell proliferation” (IRM LLC, priority 2003, dated 2007).
